The target in assay [1] is T1, chymotrypsinogen (25 kDa) (Bos taurus, UniProt P00766).
T1 construct: α-Chymotrypsinogen A from bovine pancreas; purchased Sigma Aldrich; host or cells: bovine pancreas
Description: Photochemical labeling of chymotrypsinogen (LC/MS, MS-MS). Format: biochemical, bovine. As to conditions: digestion/MS-MS. The procedure:
(§1) General Procedure B: Photochemical Irradiation of Peptides and Proteins: To a 2 mL Pyrex LC/MS vial (Thermo model #03-391-39) were sequentially added solutions containing the desired biomolecule, glutathione (GSH), pyridinium salt, and ammonium acetate (NH4OAc). The resulting solution was diluted to a final volume of 500 μL and then sparged using nitrogen for a minimum of 30 minutes prior to irradiation. The actively sparging solution was then placed in an EvoluChem™ PhotoRedOx Box photoreactor that was equipped with a Kessil, PR160 427 nm LED Lamp and was then irradiated (100% lamp intensity) for the designated time at room temperature while maintaining active sparging. The resultant reaction mixture was then analyzed directly by LC/MS. Analysis of labeling outcomes using LC/MS was performed either by extracted ion chromatogram intensities (method A) or by integrating the area under the peaks associated with peptide content (method B). These values were totaled, and estimated percentages were assigned according to relative intensities of peaks or ion counts.
Labeling of Chymotrypsinogen with pyridinium salt 2a (Chymotrypsinogen-2a Conjugate). […] The reaction mixture was directly analyzed by LC/MS using method A and was estimated to have proceeded with 90% conversion with a 20.7:8.3:1 mono:di:tri labeled ratio and 4% glutathionylation of all unlabeled and labeled protein content. […]

For assay [2], the system named is Leuprolide (1.2 kDa). Description: Photochemical labeling of leuprolide (LC/MS). Format: biochemical. As to conditions: 10 μM leuprolide, 100 μM pyridinium salt, 300 μM glutathione, 20 mM NH4OAc pH 6.9, 427 nm, 30 minutes. The procedure: as §1
Labeling of Leuprolide with Pyridinium Salt 2a (Leuprolide-2a Conjugate). […] The reaction mixture was analyzed directly by LC/MS using method B and was estimated to have proceeded with 91% conversion, a >20:1 mono:di labeled ratio, and 4% of +1 label+glutathionylation. […]

Counter-ions that a name gives are not always drawn.

Consider `COC(=O)N(C)[n+]1c(C)cc(-c2ccc3cc(OC)ccc3c2)cc1C` [Pyridinium salt 2a, 1-((methoxycarbonyl)(methyl)amino)-4-(6-methoxynapthalen-2-yl)-2,6-dimethylpyridin-1-ium tetrafluoroborate], for which, in assay [1], the “detectable locations of labeling” value was “Trp-215 and Trp-237”. Further, the conversion in assay [2] turned out to be 91%.

These data come from patent publication US20240262844A1, “PYRIDINIUM SALTS AND METHODS OF USE” (UNIVERSITY OF WYOMING, priority 2023, published 2024).
